Read-outs that look alike come from different tables or passages of the source.
How the values were obtained:
[1] = test system: T1, α-L-rhamnosidase from P. laurentii ZJU-L07; conditions: 1.0-5.0 mM substrate; pH and temperature of the kinetic assay not stated separately
T1 construct: gene EC 3.2.1.40
Description: Lineweaver-Burk; HPLC for epimedin C and icariin on α-L-rhamnosidase from P. laurentii ZJU-L07 | When epimedin C was used as a nature substrate to determine the kinetic parameters

[2] = test system: T2, α-L-rhamnosidase from P. laurentii ZJU-L07; experiment: p-nitrophenol release at […] nm, Lineweaver-Burk; assay type: biochemical, Papiliotrema laurentii; conditions: pH 7.0 citric acid-Na2HPO4, 55 °C (standard assay); 2.0-10.0 mM substrate
T2 construct: gene EC 3.2.1.40; native intracellular enzyme purified from cells of the soil isolate (strain mutagenized by gamma rays and nitrosoguanidine); 100 kDa by SDS-PAGE

Row | Km [1] [µM] | Compound | Km [2] [µM]
1 | 3280 | COc1ccc(-c2oc3c(CC=C(C)C)c(O[C@@H]4O[C@H](CO)[C@@H](O)[C@H](O)[C@H]4O)cc(O)c3c(=O)c2O[C@@H]2O[C@@H](C)[C@H](O)[C@@H](O)[C@H]2O[C@@H]2O[C@@H](C)[C@H](O)[C@@H](O)[C@H]2O)cc1 [epimedin C] | –
2 | – | C[C@@H]1O[C@@H](Oc2ccc([N+](=O)[O-])cc2)[C@H](O)[C@H](O)[C@H]1O [p-nitrophenyl-α-L-rhamnopyranoside] | 1380

Source: paper PMC9225045, “Purification and Characterization of a Novel α-L-Rhamnosidase from Papiliotrema laurentii ZJU-L07 and Its Application in Production of Icariin from Epimedin C” (Journal of Fungi, 2022)
